This note sets out measurements from patent US6610692B1, “Thrombin inhibitors” (Merck & Co., Inc., priority 1998, dated 2003).

For orientation: melting point means the temperature, or range, at which the solid turns liquid. As usually defined, the Ki is a dissociation constant, usually derived from enzyme kinetics or from competition with a known ligand.

Bounds are passed on as bounds.

Tested on in one series: not given
Test: not given
Conditions: not given
For `Cc1cc2[nH]cnc2cc1CNC(=O)Cn1c(C)cnc(NCCc2ccccn2)c1=O` [Example 33, 3-[2-(2-Pyridyl)ethylamino]-6-methyl-1-(5-methylenecarboxamidomethyl-6-methylbenzimidazolyl)-pyrazinone], the melting point was 175 to 184 °C.

On to `Cc1cc2[nH]cnc2cc1CNC(=O)Cn1c(C)cnc(NCC2(c3ccccn3)CC2)c1=O` [Example 34, 3-[1-(2-Pyridyl)-cyclopropylmethylamino]-6-methyl-1-(5-methylenecarboxamidomethyl-6-methylbenzimidazolyl)-pyrazinone], for which the melting point is 146 to 154 °C.

For `Cc1cnc(NCCc2ccccn2)c(=O)n1CC(=O)NCc1ccc2[nH]cc(Cl)c2c1` [Example 35, 3-[2-(2-Pyridyl)ethylamino]-6-methyl-1-(3-chloro-5-methylene-carboxamidomethylindolyl)-pyrazinone], the melting point lay in the range of 224 to 226 °C.

Take `Cc1cnc(NCCc2ccccc2)c(=O)n1CC(=O)NCc1ccc2[nH]cc(Cl)c2c1` [Example 36, 3-(2-Phenethylamino)-6-methyl-1-(3-chloro-5-methylenecarboxamidomethylindolyl)-pyrazinone]: the melting point was in the range of 223 to 226 °C.

`Cc1cnc(NCC2(c3ccccn3)CC2)c(=O)n1CC(=O)NCc1ccc2[nH]ccc2c1` [Example 39, 3-[1-(2-Pyridyl)cyclopropylmethylamino]-6-methyl-1-(5-methylenecarboxamidomethylindolyl)-pyrazinone] showed a melting point of 212 to 215 °C.

`Cc1cnc(NCC2(c3ccccn3)CC2)c(=O)n1CC(=O)NCc1ccc2[nH]cnc2c1` [Example 41, 3-[1-(2-Pyridyl)cyclopropylmethylamino]-6-methyl-1-(5-methylenecarboxamidomethyl-benzimidazolyl)-pyrazinone] gave a melting point of 134 to 139 °C.

In the next series the target is human α-thrombin (Homo sapiens, UniProt P00734). Nature of the series: In vitro assay for determining proteinase inhibition: thrombin (sar-PR-pna or Z-GPR-afc substrate).
Conditions: not given
The series is classed as biochemical. The protocol: In vitro Assay for Determining Proteinase Inhibition
The assays were carried out at 25° C. in 0.05 M TRIS buffer pH 7.4, 0.15 M NaCl, 0.1% PEG. Trypsin assays also contained 1 mM CaCl2.
Concentrations of stock solutions of Z-GPR-afc were determined from measurements of absorbance at 380 nm of the 7-amino-4-trifluoromethyl coumarin produced upon complete hydrolysis of an aliquot of the stock solution by thrombin.
Times required to achieve equilibration between enzyme and inhibitor were determined in control experiments. Initial velocities of product formation in the absence (Vo) or presence of inhibitor (Vi) were measured. Assuming competitive inhibition, and that unity is negligible compared Km/[S], [I]/e, and [I]/e (where [S], [I], and e respectively represent the total concentrations, of substrate, inhibitor and enzyme), the equilibrium constant (Ki) for dissociation of the inhibitor from the enzyme can be obtained from the dependence of Vo, Vi on [I] shown in equation 1: […]
Regarding `Cc1cnc(NCCc2ccccn2)c(=O)n1CC(=O)NCc1cnc2[nH]ccc2c1`, the Ki is less than 20 nM.

The same series, now with this note: Table 1; 25° C., 0.05 M TRIS buffer pH 7.4, 0.15 M NaCl, 0.1% PEG; read-out: Inhibitory activity (Ki).
`Cc1nc2[nH]nnc2cc1CNC(=O)Cn1c(C)cnc(NCCc2ccccc2)c1=O`: the Ki is greater than 20 nM.

As to `CCC[C@@H]1Cc2cc(C)n(CC(=O)NCc3ccc4[nH]ccc4c3)c(=O)c2NC1=O`, the Ki is less than 20 nM.

`Cc1cnc(NCCc2ccccc2)c(=O)n1CC(=O)NCc1cnc2[nH]nc(N)c2c1`: the Ki was greater than 20 nM.

Regarding `Cc1cnc(NCCc2ccccc2)c(=O)n1CC(=O)NCc1ccc2[nH]nnc2c1`, the Ki was greater than 20 nM.

For `Cc1cc2c(c(=O)n1CC(=O)NCc1ccc3[nH]ccc3c1)NC(=O)[C@H](CC1CCC1)C2`, the Ki is less than 20 nM.

As for `Cc1cnc(NCCc2ccc3c(c2)OCO3)c(=O)n1CC(=O)NCc1ccc2[nH]ccc2c1`, the Ki is less than 20 nM.

As to `Cc1cnc(NCCc2cccnc2)c(=O)n1CC(=O)NCc1ccc2[nH]ccc2c1`, the inhibition constant Ki is less than 20 nM.

Take `Cc1cnc(NCCc2ccccn2)c(=O)n1CC(=O)NCc1ccc2c(cnn2C)c1`: the Ki was greater than 20 nM.

For `Cc1cnc(NCCc2ccccc2)c(=O)n1CC(=O)NCc1ccc2c(cnn2C)c1`, the Ki was greater than 20 nM.

Regarding `Cc1cnc(NCC(F)(F)c2ccccn2)c(=O)n1CC(=O)NCc1ccc2[nH]ccc2c1`, the Ki is less than 20 nM.

For `Cc1cnc(NCCc2ccccc2)c(=O)n1CC(=O)NCc1ccc2[nH]nc(N)c2c1`, the Ki was greater than 20 nM.

As for `Cc1cnc(NCCc2ccccn2)c(=O)n1CC(=O)NCc1ccc2[nH]ncc2c1`, the Ki is less than 20 nM.

Regarding `Cc1cnc(NCCc2ccc3c(c2)OCO3)c(=O)n1CC(=O)NCc1ccc2[nH]ncc2c1`, the Ki was less than 20 nM.

Consider `Cc1cnc(NCCc2ccccc2)c(=O)n1CC(=O)NCc1ccc2[nH]ncc2c1`, for which the inhibitory constant (Ki) was less than 20 nM.

With `Cc1cnc(NCCc2ccccc2)c(=O)n1CC(=O)NCc1cc2nc[nH]c2cn1`, the Ki was greater than 20 nM.

On to `Cc1cc2c(c(=O)n1CC(=O)NCc1ccc3[nH]ccc3n1)NC(=O)[C@H](CC1CCC1)C2`, for which the Ki is less than 20 nM.

Turning to `Cc1cc2c(c(=O)n1CC(=O)NCc1ccc3[nH]ncc3c1)NC(=O)[C@H](CC1CCC1)C2`, the inhibitory constant (Ki) was less than 20 nM.

As to `Cc1cc2c(c(=O)n1CC(=O)NCc1cnc3[nH]ccc3c1)NC(=O)[C@H](CC1CCC1)C2`, the Ki is less than 20 nM.

For `Cc1cnc(NCC(F)(F)CC2CC2)c(=O)n1CC(=O)NCc1ccc2[nH]ccc2n1`, the Ki is less than 20 nM.

On to `Cc1cnc(NCC(F)(F)c2ccccc2)c(=O)n1CC(=O)NCc1ccc2[nH]ncc2c1`, for which the Ki was less than 20 nM.

Turning to `Cc1noc2ccc(CNC(=O)Cn3c(C)cnc(NCCc4ccccn4)c3=O)cc12`, the inhibition constant Ki is greater than 20 nM.

For `Cc1cc(SCC2CCC2)c(N)c(=O)n1CC(=O)NCc1ccc2[nH]nc(N)c2c1`, the Ki was greater than 20 nM.

In the case of `Cc1cnc(NCC(F)(F)c2ccccc2)c(=O)n1CC(=O)NCc1ccc2[nH]nc(N)c2c1`, the Ki was less than 20 nM.

Take `Cc1c(CNC(=O)Cn2c(C)cnc(NCCc3ccccc3)c2=O)cnc2[nH]ccc12`: the Ki is greater than 20 nM.

For the compound `Cc1cnc(NCC(F)(F)c2ccccn2)c(=O)n1CC(=O)NCc1ccc2[nH]cnc2c1`, the Ki is less than 20 nM.

Consider `Cc1cnc(NCC(F)(F)c2ccccc2)c(=O)n1CC(=O)NCc1ccc2[nH]cnc2c1`, for which the Ki is less than 20 nM.

On to `Cc1cnc(NCCc2ccccc2)c(=O)n1CC(=O)NCc1cnc2[nH]cnc2c1`, for which the Ki is greater than 20 nM.

With `Cc1cnc(NCC(F)(F)c2ccccc2)c(=O)n1CC(=O)NCc1cnc2[nH]cnc2c1`, the inhibitory constant (Ki) was less than 20 nM.

For the compound `Cc1cnc(NCC(F)(F)c2ccccn2)c(=O)n1CC(=O)NCc1cnc2[nH]cnc2c1`, the Ki was less than 20 nM.

Take `Cc1cc(SCC2CCC2)c(N)c(=O)n1CC(=O)NCc1cnc2[nH]cnc2c1`: the Ki is greater than 20 nM.

`Cc1cc(SCC2CC2)c(N)c(=O)n1CC(=O)NCc1cnc2[nH]cnc2c1`: the inhibition constant Ki is greater than 20 nM.

As to `Cc1cc2c(c(=O)n1CC(=O)NCc1ccc3[nH]ccc3n1)NC(=O)[C@H](CC1CC1)C2`, the Ki was less than 20 nM.

As to `Cc1cc2c(c(=O)n1CC(=O)NCc1ccc3[nH]ccc3n1)NC(=O)[C@H](CC(C)C)C2`, the Ki is less than 20 nM.

With `Cc1cc2c(c(=O)n1CC(=O)NCc1cc3cc[nH]c3cn1)NC(=O)[C@H](CC1CCC1)C2`, the Ki is less than 20 nM.

For the compound `Cc1cnc(NCC(F)(F)c2ccccn2)c(=O)n1CC(=O)NCc1ccc2[nH]ccc2n1`, the Ki is less than 20 nM.

Regarding `Cc1cnc(NCC(F)(F)c2ccccc2)c(=O)n1CC(=O)NCc1cc2cc[nH]c2cn1`, the Ki was less than 20 nM.

As to `Cc1nc2cc(CNC(=O)Cn3c(C)cnc(NCC(F)(F)c4ccccc4)c3=O)ccc2[nH]1`, the inhibition constant Ki was greater than 20 nM.

With `Cc1cc(SCC2CCC2)c(N)c(=O)n1CC(=O)NCc1ccc2[nH]cnc2c1`, the Ki was less than 20 nM.

For the compound `Cc1cnc(NCCc2ccccc2)c(=O)n1CC(=O)NCc1cc2c(Cl)c[nH]c2cn1`, the Ki was less than 20 nM.

As for `Cc1cc(SCC2CC2)c(N)c(=O)n1CC(=O)NCc1ccc2[nH]cnc2c1`, the Ki was greater than 20 nM.

As to `Cc1cnc(NCCCCC2CC2)c(=O)n1CC(=O)NCc1cc2cc[nH]c2cn1`, the Ki was less than 20 nM.

Regarding `Cc1cnc(NCC(F)(F)c2ccccn2)c(=O)n1CC(=O)NCc1cc2cc[nH]c2cn1`, the inhibitory constant (Ki) is less than 20 nM.

Turning to `Cc1cnc(NCCc2ccccn2)c(=O)n1CC(=O)NCc1cc2c(Cl)c[nH]c2cn1`, the Ki is less than 20 nM.

Consider `Cc1cnc(NCC2(c3ccccn3)CC2)c(=O)n1CC(=O)NCc1ccc2[nH]ccc2c1` [drawing 16], for which the inhibition constant (Ki) is less than 20 nM.

Consider `Cc1cnc(NCC2(c3ccccn3)CC2)c(=O)n1CC(=O)NCc1ccc2[nH]cnc2c1` [drawing 18], for which the Ki is less than 20 nM.

In the case of `Cc1cc2[nH]cnc2cc1CNC(=O)Cn1c(C)cnc(NCCc2ccccn2)c1=O` [drawing 19], the Ki was greater than 20 nM.

`Cc1cc2[nH]cnc2cc1CNC(=O)Cn1c(C)cnc(NCC2(c3ccccn3)CC2)c1=O` [drawing 20]: the Ki is less than 20 nM.

As to `Cc1cnc(NCCc2ccccn2)c(=O)n1CC(=O)NCc1ccc2[nH]cc(Cl)c2c1` [drawing 38], the Ki was less than 20 nM.

As for `Cc1cnc(NCCc2ccccc2)c(=O)n1CC(=O)NCc1ccc2[nH]cc(Cl)c2c1` [drawing 39], the Ki is less than 20 nM.
